According to US11046680B1, “Heteroaryl-substituted triazoles as APJ receptor agonists” (priority 2016, dated 2021):

Molecular target: human APJ receptor (Homo sapiens (Human), UniProt P35414)
Experiment: biochemical
Format: biochemical
Conditions: [35S]GTPγS binding, CHO membranes expressing human APJ receptor; read-out: Activity hAPJ SPA EC50 IP
Outline: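 Membranes of a stable CHO line carrying human APJ (pFLAG-CMV-3) were used in a GTPγS binding format; buffer GDP, MgCl2 and NaCl were optimized, and plates were read after 90 min at RT.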

human APJ receptor, sequence (P35414 whole entry): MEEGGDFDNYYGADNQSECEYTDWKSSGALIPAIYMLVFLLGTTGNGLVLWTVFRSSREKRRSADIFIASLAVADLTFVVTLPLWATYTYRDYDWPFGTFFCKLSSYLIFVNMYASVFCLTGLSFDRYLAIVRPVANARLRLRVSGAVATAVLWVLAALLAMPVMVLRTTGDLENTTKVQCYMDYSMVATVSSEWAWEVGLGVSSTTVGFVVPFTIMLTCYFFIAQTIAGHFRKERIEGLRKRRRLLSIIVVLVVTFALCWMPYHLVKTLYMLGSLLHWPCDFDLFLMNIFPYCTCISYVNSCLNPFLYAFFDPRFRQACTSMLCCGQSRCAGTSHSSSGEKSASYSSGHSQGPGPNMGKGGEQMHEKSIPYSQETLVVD

COc1cccc(OC)c1-n1c(NS(=O)(=O)[C@@H](C)[C@@H](OC(C)C)c2ncc(C)cn2)nnc1-c1noc(C)c1C [Example 517.0, (1S,2S)-N-(4-(2,6-dimethoxyphenyl)-5-(4,5-dimethylisoxazol-3-yl)-4H-1,2,4-triazol-3-yl)-1-isopropoxy-1-(5-methylpyrimidin-2-yl)propane-2-sulfonamide] and COc1cncc(-c2nnc(NS(=O)(=O)[C@@H](C)[C@H](C)c3ncc(C)cn3)n2-c2c(OC)cccc2OC)n1 [Example 202.0, (2S,3R)-N-(4-(2,6-dimethoxyphenyl)-5-(6-methoxy-2-pyrazinyl)-4H-1,2,4-triazol-3-yl)-3-(5-methyl-2-pyrimidinyl)-2-butanesulfonamide] are within 1.5-fold of each other in EC50: 3 nM for the first, 2.9 nM for the second.

COc1cccc(OC)c1-n1c(NS(=O)(=O)[C@@H](C)[C@H](O)c2cnc(C)cn2)nnc1-c1cc(C)[nH]n1 [Example 347.0, (1R,2S)-N-(4-(2,6-Dimethoxyphenyl)-5-(5-methyl-1H-pyrazol-3-yl)-4H-1,2,4-triazol-3-yl)-1-hydroxy-1-(5-methyl-2-pyrazinyl)-2-propanesulfonamide] and COc1cccc(OC)c1-n1c(NS(=O)(=O)[C@H](C)Cc2ncc(F)cn2)nnc1-c1nc(C(C)C)cs1 (single isomer, unassigned) [Example 158.0, (R)-N-(4-(2,6-dimethoxyphenyl)-5-(4-isopropylthiazol-2-yl)-4H-1,2,4-triazol-3-yl)-1-(5-fluoropyrimidin-2-yl)propane-2-sulfonamide or (S)-N-(4-(2,6-dimethoxyphenyl)-5-(4-isopropylthiazol-2-yl)-4H-1,2,4-triazol-3-yl)-1-(5-fluoropyrimidin-2-yl)propane-2-sulfonamide] are within 1.5-fold of each other in EC50: 3.8 nM for the first, 4.1 nM for the second.

Compared with COc1cccc(OC)c1-n1c(NS(=O)(=O)CCc2ccc(Cl)cc2)nnc1-c1ncco1 [Example 92.0, 2-(4-chlorophenyl)-N-(4-(2,6-dimethoxyphenyl)-5-(oxazol-2-yl)-4H-1,2,4-triazol-3-yl)ethanesulfonamide], COc1cccc(OC)c1-n1c(NS(=O)(=O)[C@H](C)Cc2ncc(F)cn2)nnc1-c1nc(C2CC2)cs1 (single isomer, unassigned) [Example 160.0, (R)-N-(5-(4-cyclopropylthiazol-2-yl)-4-(2,6-dimethoxyphenyl)-4H-1,2,4-triazol-3-yl)-1-(5-fluoropyrimidin-2-yl)propane-2-sulfonamide or (S)-N-(5-(4-cyclopropylthiazol-2-yl)-4-(2,6-dimethoxyphenyl)-4H-1,2,4-triazol-3-yl)-1-(5-fluoropyrimidin-2-yl)propane-2-sulfonamide] is 36-fold lower in EC50: 71 nM for the first, 2 nM for the second.

Compared with CCc1csc(-c2nnc(NS(=O)(=O)[C@H](C)Cc3ncc(F)cn3)n2-c2c(OC)cccc2OC)n1 (single isomer, unassigned) [Example 104.0, (R)-N-(4-(2,6-dimethoxyphenyl)-5-(4-ethylthiazol-2-yl)-4H-1,2,4-triazol-3-yl)-1-(5-fluoropyrimidin-2-yl)propane-2-sulfonamide or (S)-N-(4-(2,6-dimethoxyphenyl)-5-(4-ethylthiazol-2-yl)-4H-1,2,4-triazol-3-yl)-1-(5-fluoropyrimidin-2-yl)propane-2-sulfonamide], COc1cccc(OC)c1-n1c(NS(=O)(=O)CCc2ccc(F)cc2Br)nnc1-c1nccs1 [Example 140.0, 2-(2-bromo-4-fluorophenyl)-N-(4-(2,6-dimethoxyphenyl)-5-(thiazol-2-yl)-4H-1,2,4-triazol-3-yl)ethanesulfonamide] is 5.3-fold higher in EC50: 4.6 nM for the first, 24.5 nM for the second.

First: COc1cncc(-c2nnc(NS(=O)(=O)[C@@H](C)Cc3ncc(F)cn3)n2-c2c(OC)cccc2OC)n1 (single isomer, unassigned) [Example 188.0, (2S)-N-(4-(2,6-dimethoxyphenyl)-5-(6-methoxy-2-pyrazinyl)-4H-1,2,4-triazol-3-yl)-1-(5-fluoro-2-pyrimidinyl)-2-propanesulfonamide or (2R)-N-(4-(2,6-dimethoxyphenyl)-5-(6-methoxy-2-pyrazinyl)-4H-1,2,4-triazol-3-yl)-1-(5-fluoro-2-pyrimidinyl)-2-propanesulfonamide]
Second: COc1cccc(OC)c1-n1c(NS(=O)(=O)[C@@H](C)[C@H](C)c2ncc(C)cn2)nnc1-c1ccn(C)n1 [Example 201.0, (2S,3R)-N-(4-(2,6-dimethoxyphenyl)-5-(1-methyl-1H-pyrazol-3-yl)-4H-1,2,4-triazol-3-yl)-3-(5-methyl-2-pyrimidinyl)-2-butanesulfonamide]
The EC50 of the first is 16-fold higher: 15 nM for the first, 0.93 nM for the second. The second is the more potent here.

First: COc1ccc(S(C)(=O)=O)cc1-n1c(NS(=O)(=O)CCc2ccc(F)cc2)nnc1-c1cccs1 [Example 358.0, 2-(4-Fluorophenyl)-N-(4-(2-methoxy-5-(methylsulfonyl)phenyl)-5-(thiophen-2-yl)-4H-1,2,4-triazol-3-yl)ethanesulfonamide]
Second: COCc1nc(-c2nnc(NS(=O)(=O)CCc3ccc(Cl)cc3)n2-c2c(OC)cccc2OC)cs1 [Example 146.0]
The EC50 of the first is 2.9-fold lower: 34 nM for the first, 97 nM for the second.

First: COc1cccc(OC)c1-n1c(NS(=O)(=O)[C@@H](C)[C@@H](OC(C)C)c2cnc(C)cn2)nnc1-c1cc(C)on1 [Example 497.0, (1S,2S)-N-(4-(2,6-dimethoxyphenyl)-5-(5-methylisoxazol-3-yl)-4H-1,2,4-triazol-3-yl)-1-isopropoxy-1-(5-methylpyrazin-2-yl)propane-2-sulfonamide]
Second: COc1cccc(OC)c1-n1c(NS(=O)(=O)[C@@H](C)[C@H](C)c2ncc(F)cn2)nnc1-c1nc(C)cs1 (single isomer, unassigned) [Example 120.0]
The EC50 of the first is 88-fold higher: 15 nM for the first, 0.17 nM for the second.

Going from COc1cccc(OC)c1-n1c(NS(=O)(=O)[C@H](C)Cc2ncc(F)cn2)nnc1-c1ccn(C)c1 (single isomer, unassigned) [Example 35.0, (R)-N-(4-(2,6-dimethoxyphenyl)-5-(1-methyl-1H-pyrrol-3-yl)-4H-1,2,4-triazol-3-yl)-1-(5-fluoropyrimidin-2-yl)propane-2-sulfonamide or (S)-N-(4-(2,6-dimethoxyphenyl)-5-(1-methyl-1H-pyrrol-3-yl)-4H-1,2,4-triazol-3-yl)-1-(5-fluoropyrimidin-2-yl)propane-2-sulfonamide] to COc1cccc(OC)c1-n1c(NS(=O)(=O)[C@H](C)Cc2ncc(F)cn2)nnc1-c1nc(C)cs1 [Example 103.0], the EC50 falls from 27 nM to 8.4 nM (3.2-fold). The second is the more potent here.

Compared with Cc1cnc([C@@H](C)[C@H](C)S(=O)(=O)Nc2nnc(-c3ccn(C)n3)n2-c2c(F)cccc2F)cn1 [Example 231.0, (2S,3R)-N-(4-(2,6-difluorophenyl)-5-(1-methyl-1H-pyrazol-3-yl)-4H-1,2,4-triazol-3-yl)-3-(5-methyl-2-pyrazinyl)-2-butanesulfonamide], COc1cccc(OC)c1-n1c(NS(=O)(=O)[C@@H](C)[C@H](OC)c2ncc(Cl)cn2)nnc1-c1c[nH]c2ncccc12 [Example 419.0, (1R,2S)-1-(5-chloropyrimidin-2-yl)-N-(4-(2,6-dimethoxyphenyl)-5-(1H-pyrrolo[2,3-b]pyridin-3-yl)-4H-1,2,4-triazol-3-yl)-1-methoxypropane-2-sulfonamide] is 19-fold lower in EC50: 46 nM for the first, 2.4 nM for the second.

First: COc1cccc(OC)c1-n1c(NS(=O)(=O)[C@@H](C)[C@H](C)c2ncc(F)cn2)nnc1-c1cnn2c1CCC2 [Example 479.0, (2S,3R)-N-(5-(5,6-dihydro-4H-pyrrolo[1,2-b]pyrazol-3-yl)-4-(2,6-dimethoxyphenyl)-4H-1,2,4-triazol-3-yl)-3-(5-fluoropyrimidin-2-yl)butane-2-sulfonamide]
Second: COc1cccc(OC)c1-n1c(NS(=O)(=O)CCc2ncc(F)cn2)nnc1-c1nc(C(C)C)cs1 [Example 96.0, N-(4-(2,6-dimethoxyphenyl)-5-(4-isopropylthiazol-2-yl)-4H-1,2,4-triazol-3-yl)-2-(5-fluoropyrimidin-2-yl)ethanesulfonamide]
The EC50 of the first is 12-fold lower: 0.56 nM for the first, 7 nM for the second. The first is the more potent here.

Going from “(2S)-N-(4-(2,6-dimethoxyphenyl)-5-(2-pyrazinyl)-4H-1,2,4-triazol-3-yl)-1-(5-fluoro-2-pyrimidinyl)-2-propanesulfonamide and (2R)-N-(4-(2,6-dimethoxyphenyl)-5-(2-pyrazinyl)-4H-1,2,4-triazol-3-yl)-1-(5-fluoro-2-pyrimidinyl)-2-propanesulfonamide [Example 182.0]” to COc1cccc(OC)c1-n1c(NS(=O)(=O)[C@@H](C)[C@@H](OC(C)C)c2ncc(F)cn2)nnc1-c1cnn2c1CCC2 [Example 482.0, (1S,2S)-N-(5-(5,6-dihydro-4H-pyrrolo[1,2-b]pyrazol-3-yl)-4-(2,6-dimethoxyphenyl)-4H-1,2,4-triazol-3-yl)-1-(5-fluoropyrimidin-2-yl)-1-isopropoxypropane-2-sulfonamide], the EC50 falls from 84 nM to 0.38 nM (220-fold). The second is the more potent here.

First: COc1cccc(OC)c1-n1c(NS(=O)(=O)[C@@H](C)Cc2ncc(F)cn2)nnc1-c1cccnn1 (single isomer, unassigned) [Example 32.0, (2S)-N-(4-(2,6-dimethoxyphenyl)-5-(3-pyridazinyl)-4H-1,2,4-triazol-3-yl)-1-(5-fluoro-2-pyrimidinyl)-2-propanesulfonamide or (2R)-N-(4-(2,6-dimethoxyphenyl)-5-(3-pyridazinyl)-4H-1,2,4-triazol-3-yl)-1-(5-fluoro-2-pyrimidinyl)-2-propanesulfonamide]
Second: COc1cccc(OC)c1-n1c(NS(=O)(=O)[C@H](C)[C@@H](C)c2ncc(C)cn2)nnc1-c1csc(C)n1 (stereo in doubt) [Example 2.0, (2R,3S)-N-(4-(2,6-dimethoxyphenyl)-5-(2-methylthiazol-4-yl)-4H-1,2,4-triazol-3-yl)-3-(5-methylpyrimidin-2-yl)butane-2-sulfonamide]
The EC50 of the first is 53-fold higher: 17 nM for the first, 0.32 nM for the second. The second is the more potent here.

Work on COc1cccc(OC)c1-n1c(NS(=O)(=O)CCc2ccc(Cl)cc2)nnc1-c1cscn1 [Example 91.0, 2-(4-chlorophenyl)-N-(4-(2,6-dimethoxyphenyl)-5-(thiazol-4-yl)-4H-1,2,4-triazol-3-yl)ethanesulfonamide] yielded an EC50 of 26 nM.
